pIC50: −log10 of the molar value.
Columns and labels:
[1] = molecular target: T1, Recombinant human c-Met protein (Homo sapiens, UniProt P08581); assay: c-Met receptor tyrosine kinase activity assay (NADH read-out); assay type: biochemical; details: c-Met 30 nM, ATP 30 μM, 100 min at 32° C.
T1 construct: purchased Invitrogen
Procedure: c-Met Receptor Tyrosine Kinase Activity Assay (NADH Read-Out):
Recombinant human c-Met protein (Invitrogen, Carlsbad, Calif., USA) is used. As substrate for the kinase reaction the peptide KKKSPGEYVNIEFG (JPT, Germany) is used. For the assay, 1 μL of a 51-fold concentrated solution of the test compound in DMSO is pipetted into a white 384-well microtiter plate (Greiner Bio-One, Frickenhausen, Germany). 25 μL of a solution of c-Met (final concentration 30 nM) and pyruvate kinase/lactate dehydrogenase (Roche Diagnostics, Mannheim, Germany; final concentration 8 mg/L) in assay buffer [3-(N-morpholino)propanesulfonic acid (MOPS), 50 mM, pH 7; MgCl2, 10 mM; bovine serum albumin (BSA), 0.01%; Triton X 100, 0.01%; DTT, 2 mM] are added, and the mixture is incubated for 5 min at room temperature. Then, the kinase reaction is started by the addition of 25 μL of a solution of adenosine triphosphate (ATP, final concentration 30 μM), substrate (final concentration 100 μM), nicotinamide adenine dinucleotide (NADH, final concentration 50 μM) and dithiothreitol (DTT, final concentration 2 mM) in assay buffer, and the resulting mixture is incubated for a reaction time of 100 min at 32° C.
Subsequently, the amount of phosphorylated substrate is evaluated by measurement of the decrease of NADH fluorescence. Therefore, the fluorescence emissions at 465 nm after excitation at 340 nm is measured in a fluorescence reader, e.g. Tecan Ultra (Tecan, Männedorf, Switzerland). The data are normalised (enzyme reaction without inhibitor=0% inhibition; all other assay components but no enzyme=100% inhibition).
Some representative IC50 values are listed in Table 1 below together with corresponding data for a structurally related, non-fluorinated compound from prior art (cf. WO 2008/071451): […]

[2] = Caco-2 permeability assay; assay type: in vitro ADME; details: human, apical to basolateral, test concentration 2 μM, 2 h at 37° C., read-out: Caco-2 permeability PappA-B
Source text: Caco-2 Permeability Assay:
The in vitro permeation of a test compound across a Caco-2 cell monolayer is a well-established assay system to predict the permeability from the gastro-intestinal tract [cf. P. Artursson and J. Karlsson: Correlation between oral drug absorption in humans and apparent drug permeability coefficients in human intestinal epithelial (Caco-2) cells, Biochem. Biophys. 175 (3), 880-885 (1991)]. The permeability of the compounds of the present invention in such Caco-2 cells was deter-mined as described below:
Human Caco-2 cells (ACC No. 169, DSMZ, German Collection of Microorganisms and Cell Cultures, Braunschweig, Germany) are seeded on 24-well insert plates and are allowed to grow for 14-16 days. For permeability studies, the test compounds are dissolved in DMSO and diluted to the final test concentration of 2 μM with transport buffer [Hanks' Buffered Salt Solution, Gibco/Invitrogen, further supplemented with glucose (final concentration 19.9 mM) and HEPES (final concentration 9.8 mM)]. For determination of the apical to basolateral permeability (PappA-B), the test compound solution is added to the apical side of the cell monolayer and transport buffer to the basolateral side of the monolayer; for determination of the basolateral to apical permeability (PappB-A), the test compound solution is added to the basolateral side of the cell monolayer and transport buffer to the apical side of the monolayer. Samples are taken from the donor compartment at the beginning of the experiment to confirm mass balance. After an incubation of 2 h at 37° C., samples are taken from both compartments. Samples are analyzed by LC-MS/MS, and the apparent permeability coefficients are calculated. Lucifer Yellow permeability is assayed for each cell monolayer to ensure cell monolayer integrity, and the permeability of Atenolol (low permeability marker) and Sulfasalazine (marker for active excretion) is determined for each batch as quality control. […]

[3] = molecular target: T2, recombinant kinase domain of the human c-Met (amino acids 960-1390) (Homo sapiens, UniProt P08581); assay: c-Met receptor tyrosine kinase homogeneous time-resolved fluorescence assay (alternative format); assay type: biochemical; details: HTRF format; ATP 10 μM, 30 min at 22° C.
T2 construct: kinase domain of the human c-Met (amino acids 960-1390); His6 (N); made in house; host or cells: insect cells (SF21)
T2 sequence (P08581 960-1390): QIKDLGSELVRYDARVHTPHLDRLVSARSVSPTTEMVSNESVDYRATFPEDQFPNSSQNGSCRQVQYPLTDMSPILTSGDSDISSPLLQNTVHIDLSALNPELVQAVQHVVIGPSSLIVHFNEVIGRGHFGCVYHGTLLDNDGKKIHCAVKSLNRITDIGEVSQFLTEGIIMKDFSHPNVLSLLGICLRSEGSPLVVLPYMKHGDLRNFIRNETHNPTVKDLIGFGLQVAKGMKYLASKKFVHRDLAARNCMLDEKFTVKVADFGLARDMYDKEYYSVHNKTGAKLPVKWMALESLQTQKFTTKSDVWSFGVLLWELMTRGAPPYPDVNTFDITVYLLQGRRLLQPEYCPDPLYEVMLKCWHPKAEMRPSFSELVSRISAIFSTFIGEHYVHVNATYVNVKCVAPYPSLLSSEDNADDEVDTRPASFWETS
Source text: c-Met Receptor Tyrosine Kinase Homogeneous Time-Resolved Fluorescence Assay (Alternative Format):
The N-terminally His6-tagged recombinant kinase domain of the human c-Met (amino acids 960-1390), expressed in insect cells (SF21) and purified by Ni-NTA affinity chromatography and consecutive size exclusion chromatography (Superdex 200), is used. Alternatively, commercially available c-Met (Millipore) can be used. As substrate for the kinase reaction, the biotinylated poly-Glu,Tyr (4:1) copolymer (#61GT0BLC, Cis Biointernational, Marcoule, France) is used.
For the assay, 50 nL of a 100-fold concentrated solution of the test compound in DMSO is pipetted into a black low-volume 384-well microtiter plate (Greiner Bio-One, Frickenhausen, Germany). […]
The resulting mixture is incubated for 1 h at 22° C. to allow the binding of the biotinylated phosphorylated peptide to the streptavidine-XLent and the PT66-Eu-chelate. Subsequently, the amount of phosphorylated substrate is evaluated by measurement of the resonance energy transfer from the PT66-Eu-chelate to the streptavidine-XLent. Therefore, the fluorescence emissions at 620 nm and 665 nm after excitation at 350 nm are measured in an HTRF reader, e.g. Rubystar (BMG Lab-technologies, Offenburg, Germany) or Viewlux (Perkin-Elmer). […]

T1 sequence (P08581 25-1390): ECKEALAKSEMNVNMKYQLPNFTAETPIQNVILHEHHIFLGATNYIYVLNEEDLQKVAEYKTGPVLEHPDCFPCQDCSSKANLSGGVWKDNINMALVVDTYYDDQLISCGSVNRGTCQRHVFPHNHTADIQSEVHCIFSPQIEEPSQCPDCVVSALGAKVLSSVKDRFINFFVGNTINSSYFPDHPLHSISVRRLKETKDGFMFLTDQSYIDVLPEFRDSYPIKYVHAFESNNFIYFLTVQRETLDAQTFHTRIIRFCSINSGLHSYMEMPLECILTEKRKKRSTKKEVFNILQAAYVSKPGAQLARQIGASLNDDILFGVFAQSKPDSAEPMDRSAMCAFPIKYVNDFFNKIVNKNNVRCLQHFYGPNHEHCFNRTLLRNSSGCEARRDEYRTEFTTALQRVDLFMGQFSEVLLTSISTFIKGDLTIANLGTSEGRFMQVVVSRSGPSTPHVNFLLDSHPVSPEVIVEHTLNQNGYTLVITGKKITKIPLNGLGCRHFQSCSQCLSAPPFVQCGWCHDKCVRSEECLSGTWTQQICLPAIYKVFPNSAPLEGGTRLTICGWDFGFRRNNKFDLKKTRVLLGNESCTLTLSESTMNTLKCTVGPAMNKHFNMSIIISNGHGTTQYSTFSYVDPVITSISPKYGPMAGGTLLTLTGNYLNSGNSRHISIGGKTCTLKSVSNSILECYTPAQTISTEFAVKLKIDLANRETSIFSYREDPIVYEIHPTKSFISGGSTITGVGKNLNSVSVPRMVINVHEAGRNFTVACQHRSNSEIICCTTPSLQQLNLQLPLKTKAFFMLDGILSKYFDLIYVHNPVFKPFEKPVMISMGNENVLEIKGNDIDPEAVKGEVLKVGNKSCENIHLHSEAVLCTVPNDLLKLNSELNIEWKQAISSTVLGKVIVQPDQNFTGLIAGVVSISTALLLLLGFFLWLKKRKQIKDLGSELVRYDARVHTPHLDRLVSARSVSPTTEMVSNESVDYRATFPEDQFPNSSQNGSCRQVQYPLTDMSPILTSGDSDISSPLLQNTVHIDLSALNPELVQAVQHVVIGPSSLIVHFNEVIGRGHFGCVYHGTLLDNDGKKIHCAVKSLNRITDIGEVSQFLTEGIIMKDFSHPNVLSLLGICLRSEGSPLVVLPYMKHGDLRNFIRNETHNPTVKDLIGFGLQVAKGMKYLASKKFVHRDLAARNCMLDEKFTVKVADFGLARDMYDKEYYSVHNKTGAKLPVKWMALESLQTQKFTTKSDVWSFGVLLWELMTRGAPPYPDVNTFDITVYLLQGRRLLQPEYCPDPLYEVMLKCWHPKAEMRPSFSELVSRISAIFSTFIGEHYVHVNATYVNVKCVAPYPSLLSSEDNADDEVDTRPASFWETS

SMILES	pIC50 [1]	Papp A→B at 2 h, 2 μM [2]	pIC50 [3]
Cc1n[nH]c2cc(F)c(C3C(C#N)=C(CCC(F)(F)F)NC(C(F)(F)F)=C3C#N)cc12 (racemic) [Example 7, 4-(6-Fluoro-3-methyl-1H-indazol-5-yl)-2-(trifluoromethyl)-6-(3,3,3-trifluoropropyl)-1,4-dihydro-pyridine-3,5-dicarbonitrile]	7.28	20.4 ×10⁻⁶ cm/s	
Cc1n[nH]c2cc(F)c(C3C(C#N)=C(CCC(F)(F)F)NC(C(F)F)=C3C#N)cc12 (racemic) [Example 10, 2-(Difluoromethyl)-4-(6-fluoro-3-methyl-1H-indazol-5-yl)-6-(3,3,3-trifluoropropyl)-1,4-dihydropyridine-3,5-dicarbonitrile]	7.59		7.96
N#CC1=C(CCC(F)(F)F)NC(C(F)(F)F)=C(C#N)C1c1ccc2[nH]ncc2c1 (centres unmarked) [Example 16, 4-(1H-Indazol-5-yl)-2-(trifluoromethyl)-6-(3,3,3-trifluoropropyl)-1,4-dihydro-pyridine-3,5-dicarbonitrile]	7.54		

Second part, the molecule after the results:

pIC50 [1]	Papp A→B at 2 h, 2 μM [2]	pIC50 [3]	SMILES
7.80	21.7 ×10⁻⁶ cm/s		Cc1n[nH]c2ccc(C3C(C#N)=C(CCC(C)C)NC(C(F)(F)F)=C3C#N)cc12 (racemic) [Example 1, 2-(3-Methylbutyl)-4-(3-methyl-1H-indazol-5-yl)-6-(trifluoromethyl)-1,4-dihydropyridine-3,5-dicarbonitrile]
		7.96	CCC1=C(C#N)C(c2ccc3[nH]nc(C)c3c2)C(C#N)=C(C(F)(F)F)N1 (centres unmarked) [Example 4, 2-Ethyl-4-(3-methyl-1H-indazol-5-yl)-6-(trifluoromethyl)-1,4-dihydropyridine-3,5-dicarbonitrile]
8.05	25.9 ×10⁻⁶ cm/s		CCC1=C(C#N)C(c2ccc3[nH]nc(C)c3c2)C(C#N)=C(C(F)F)N1 (centres unmarked) [Example 13, 2-(Difluoromethyl)-6-ethyl-4-(3-methyl-1H-indazol-5-yl)-1,4-dihydropyridine-3,5-dicarbonitrile]
7.77			Cc1n[nH]c2ccc(C3C(C#N)=C(CCC(F)(F)F)NC(C(F)F)=C3C#N)cc12 (centres unmarked) [Example 14, 2-(Difluoromethyl)-4-(3-methyl-1H-indazol-5-yl)-6-(3,3,3-trifluoropropyl)-1,4-dihydropyridine-3,5-dicarbonitrile]

Source: US20120270905A1, “FLUORINATED 2,6-DIALKYL-3,5-DICYANO-4-(1H-INDAZOL-5-YL)-1,4-DIHYDROPYRIDINES AND METHODS OF USE THEREOF” (BAYER PHARMA AKTIENGESELLSCHAFT, priority 2009, published 2012)
